Ends that are not written are not given here. 2GFP = dimer of GFP proteins
Experiments:
TEY motif of ERK2 = assay: TEY phosphorylation by Western blot with anti pTEY-ERK; assay type: cell-based; settings: COS7 cells, following EGF stimulation
Method: FIG. […] ERK2 phosphorylation was detected by Western blot analysis using anti-phosphoTEY-ERK (αpTEY), and anti ERK Abs (αgERK).
Western Blotting: Cell extract was collected as described above, and aliquots from each sample (20 μg) were separated by 10% SDS-PAGE followed by Western blotting with the appropriate antibodies. The blots were developed with alkaline phosphatase or horseradish peroxidase-conjugated anti-mouse’, anti-rabbit and anti-goat Fab Abs.

Nup153c = assay: Interaction with recombinant His-Nup153c; assay type: binding; settings: immunoprecipitated ERK2 incubated with 0.5 μg recombinant His-Nup153c
Method: FIGS. 19A-19C are autoradiographs illustrating that phospho-SPS interacts with importin-7 and releases Nup153c binding without involvment of importin-β. […]. Interaction of ERK2 with Importin-7 is enhanced by EGF stimulation and EPE mutation. HeLa cells overexpressing WT-ERK (WT), ERK-APA (APA), ERK-EPE (EPE) or GFP were serum starved and treated with EGF (50 ng/ml, 10 min). The extracts of the treated cells were then subjected to coimmunoprecipitation using A/G beads pre-conjugated with anti GFP Ab and mild washes. The coimmunoprecipitated importin-7 (first panel) and importin-β (third panel), as well as their loading amounts (panels 2 and 4 respectively) were determined by WB using anti importin-7 (αImp7) and importin-β (αImpβ) Abs. The equal amount of immunoprecipitated ERKs was determined with anti GFP (αGFP; IP) Ab. FIG. 19B. Interaction of 2GFP-SPS and its mutants with importin-7. HeLa cells overexpressing 2GFP, 2GFP-SPS, 2GFP-APA and 2GFP-EPE constructs were subjected to coimmunoprecipitation as described in FIG. 19A (without EGF stimulation). FIG. 19C. Interaction of NUP153 with WTERK2 and its APA and EPE mutants. NUP153c is elevated in APA-ERK2, but reduced in EPE-ERK2. Immunoprecipitated and stringently washed WT-ERK2 (WT), APA-ERK2 (APA) or ERK2 from […] cells pre-treated with or without TPA (250 nM, 15 min) were incubated with 0.5 μg recombinant His-Nup153c. […]

COS7 cells = assay: Subcellular fractionation of GFP-ERK2 constructs; assay type: cell-based; settings: 48 hr after transfection, serum-starved
Method: FIG. 6 is an autoradiograph illustrating the subcellular fractionation of WT-GFP-ERK2 (WT), APA-GFP-ERK2 (APA), or EPE-GFP-ERK2 (EPE). COS7 cells were grown in 10 cm plates and transfected with the above ERK2 constructs. Twenty-four hr after transfection the cells were serum-starved for 16 hr and subjected to cellular fractionation as described under materials and Methods. Western blot analysis of aliquots of the fractions were stained with anti GFP Ab to detect the ERK2 and its mutant, and with anti tubulin and anti c-Jun Abs as markers for the cytoplasmic and nuclear fractions respectively.
Cellular Fractionation: Transfected COS7 cells were starved (0.1% FBS) for 16 h, after which they were washed with ice-cold PBS, suspended in ice-cold buffer H, and centrifuged (12,000×g, 5 min). Then, the nuclear and cytosolic fractions were isolated as described [H. Rubinfeld, T. Hanoch, R. Seger, J. Biol. Chem. 274, 30349 (1999)]. Briefly, the pellets were suspended in 0.1% NP-40 followed by centrifugation (12,000×g, 5 min). The supernatant, containing the cytosolic fraction, was boiled in sample buffer. The pellet was suspended in extraction buffer (420 mM Nacl, 50 mM β-glycerophosphate, 0.5 mM Na3VO4, 1.5 mM MgCl2, 0.2 mM EDTA, 1 mM DTT, 25% glycerol), incubate on ice for 10 min, sonicated (50 W, 2×7 sec), and centrifuged (12,000×g, 5 min). […]

endogenous ERKs = assay: Effect of 2GFP chimeras on nuclear translocation of endogenous ERKs; assay type: cell-based; settings: CHO cells overexpressing the chimera, TPA 250 nM, 15 min
Method: FIGS. 10A-10X illustrate the effects of the 2GFP chimeras on the nuclear translocation of endogenous ERKs. CHO cells overexpressing 2GFP, 2GFP-SPS, 2GFP-APA and 2GFP-EPE were serum starved and treated with or without TPA (250 nM, 15 min). Subsequently, the cells were fixed and stain with anti-ERK2 (C-14) Ab and with DAPI.
Immunofluorescence Microscopy. Cells were fixed (30 min in 3% paraformaldehyde in PBS or 10 min with ice-cold methanol), followed by 5-min permeabilization with 0.2% Triton X-100 in PBS (23° C.). The fixed cells were sequentially incubated with the appropriate Abs (45 min) followed by rhodamine-conjugated secondary Abs (45 min) and DAPI. Slides were visualized using a fluorescence microscope (Nikon, Japan) at 400× magnifications.

Row | Substance | time of peak TEY phosphorylation (TEY motif of ERK2) [min] | interaction with Nup153 (Nup153c) | localized in the nucleus (COS7 cells) | inhibition of TPA-induced translocation of endogenous ERKs (endogenous ERKs)
1 | WT-ERK2: wild-type ERK2 fused to GFP, prepared in pEGFP C1 [reference compound] | 5 | interacts with Nup153 | about 75% | –
2 | 2GFP-SPS: 2GFP with the 19 amino acid stretch containing the SPS of ERK2 (SEQ ID NO: 6) fused to its C terminus (2GFP-LDQLNHILGILGSPSQEDL) | – | – | – | inhibited

From patent US10000771B2, “Nuclear targeting sequences” (Yeda Research and Development Co. Ltd., priority 2007, dated 2018)
